Consider 16 molecules from patent US6849660B1, “Antimicrobial biaryl compounds” (ISIS Pharmaceuticals, Inc., priority 2000, dated 2005).

Values after ≈ are worked out from the molar mass of the structure shown. Where two headings read alike, the source gives them in different places.

The test system of experiment [1] is E. coli S30 bacterial extract. Description: Coupled bacterial transcription/translation assay (luciferase reporter). Type of experiment: biochemical. How it is done:
Coupled Bacterial Transcription/Translation Assay. The DNA template, pBestLuc™ (Promega), is a plasmid containing a reporter gene for firefly luciferase fused to a strong tac promoter and ribosome binding site. Messenger RNA from 1 μg pBestLuc was transcribed and translated in E. coli S30 bacterial extract in the presence or absence of test compound. Compounds were tested in a black 96 well microtiter plate with an assay volume of 35 μL. Each test well contained: 5 μL test compound, 13 μL S30 premix (Promega), 4 μL 10× complete amino acid mix (1 mM each), 5 μL E. coli S30 extract and 8 μL of 0.125 μg/μL pBestLuc™. The transcription/translation reaction was incubated for 35 minutes at 37° C. followed by detection of functional luciferase with the addition of 30 μL LucLite™ (Packard). Light output was quantitated on a Packard TopCount.
(In a reporter assay the amount or activity of a reporter protein is the signal.)

In the next experiment the test system is E. coli. The experiment is described as follows: Minimum inhibitory concentration (MIC), E. coli. Type of experiment: cell-based. The following applies: Escherichia coli, Table 6. How it is done:
(§1) Bacterial Strains. The Streptococcus pyogenes strains, Klebsiella pneumoniae, Escherichia coli, Staphylococcus aureus, Enterococcus faecalis used in the antibacterial activity studies ATCC 14289, 49399, 13883, 25922, 13709, 29212, respectively, are obtained from the American Type Culture Collection, Rockville, Md. The strain E. coli imp- is a mutant strain of wild type E. coli with increased outer membrane permeability and was grown in LB broth at 37 ° C. S. pyogenes strain is grown in Todd-Hewitt broth. S. aureus is grown in trypticase soy broth, E. faecalis in Todd-Hewitt broth, wild type E. coli and K. pneumoniae, in nutrient broth.
(§2) Determination of Minimum Inhibitory Concentrations (MICs). The assays were carried out in […] volume in duplicate in 96-well clear flat-bottom plates. The bacterial suspension from an overnight culture growth in appropriate medium was added to a solution of test compound in 4% DMSO in water. Final bacterial inoculum was approximately 10^5-10^6 CFU/well. The percent growth of the bacteria in test wells relative to that observed for a well containing no compound was determined by measuring absorbance at 595 nm (A595) after 24 h. […] Both ampicillin and tetracycline is used as antibiotic-positive controls in each screening assay for S. pyogenes, E. coli imp-, E. coli, S. aureus, E. faecalis, K pneumoniae and P. vulgaris. […]

In a further experiment the test system is S. pyogenes. Description: Minimum inhibitory concentration (MIC), S. pyogenes. Type of experiment: cell-based. The following applies: Streptococcus pyogenes. As for the experimental part: as §1
(§3) Determination of Minimum Inhibitory Concentrations (MICs). The assays were carried out in […] volume in duplicate in 96-well clear flat-bottom plates. The bacterial suspension from an overnight culture growth in appropriate medium was added to a solution of test compound in 4% DMSO in water. Final bacterial inoculum was approximately 10^5-10^6 CFU/well. The percent growth of the bacteria in test wells relative to that observed for a well containing no compound was determined by measuring absorbance at 595 nm (A595) after 24 h. […] Both ampicillin and tetracycline is used as antibiotic-positive controls in each screening assay for S. pyogenes, E. coli imp-, E. coli, S. aureus, E. faecalis, K pneumoniae and P. vulgaris. Ciprofloxacin is used as an antibiotic positive control in each screening assay for P. aeruginosa.

The next experiment concerns K. pneumoniae. The experiment is described as follows: Minimum inhibitory concentration (MIC), K. pneumoniae. Type of experiment: cell-based. The following applies: Klebsiella pneumoniae, Table 6. How it is done:
as §1, §2

The next experiment has as its system E. hirae. Description: Minimum inhibitory concentration (MIC), E. hirae. The following applies: Enterococcus hirae, Table 6. It counts as cell-based. As for the experimental part: as §3
For another experiment, the system named is S. aureus. Description: Minimum inhibitory concentration (MIC), S. aureus. It counts as cell-based. The following applies: Staphylococcus aureus, Table 6. As for the experimental part:
as §1, §2

Experiment [2] deals with 58 nucleotide fragment of E. coli 23S ribosomal RNA (23S rRNA). Description: Mass-spec binding assay (ESI-FTICR-MS). The following applies: Table 5, amino acid spacer compounds; read-out: approx. Kd. As for the experimental part:
Binding affinity of test compounds to a 58 nucleotide fragment of E. coli 23S ribosomal RNA (23S rRNA) was determined using electrospray ionization Fourier transform ion cyclotron resonance mass spectrometry (ESI-FTICR-MS). The structure of the 23S rRNA fragment and its preparation is described by Conn et al (Science, 1999, 284(5417):1171) and Hinck et al (J. Mol. Biol., 1997, 274(1): 101) both incorporated herein by reference. The mass spec assay determined the exact chemical composition of ligands that bound to the target rRNA and determined relative or absolute dissociation (KD) of ligands for the target. In the first step of the assay, a mixture of 23S rRNA target and test compound were moved from solution into the gas phase by electrospray ionization. The FT-ICR mass spectrometer served as a parallel set of “scales”, simultaneously measuring the exact molecular masses of the small molecules that bound to the RNA with great accuracy. The mass measurement error for an RNA-ligand complex weighing 10 kDa equals the mass of an electron. At this level of mass accuracy, each compound in the mixture was “labeled” by its molecular formula and exact molecular mass. […]

Setting [3] is: S. pyogenes, Table 6, read-out: MIC.
Setting [4] is: Table 5, amino acid spacer compounds.

For orientation: IC50 means the concentration needed to halve the response being measured. Low readings indicate higher potency, high ones lower potency. For the molecule `O=C(Nc1cccc(-c2ccc(C(=O)N3CCNCC3)o2)c1)c1ccc2[nH]c(=O)c(=O)[nH]c2c1`, the half-maximal inhibitory concentration (IC50) in experiment [1] (Table 4, heteroaryl compounds) worked out at 25 µM. This counts as double-digit micromolar.
`O=C(Nc1cccc(-c2nc(C(=O)N3CCNCC3)cs2)c1)c1ccc2[nH]c(=O)c(=O)[nH]c2c1`: inhibition in experiment [1] (Table 4, heteroaryl compounds) was half-maximal at 75 µM (IC50).
On to `O=C(Nc1cccc(-c2ccc(S(=O)(=O)N3CCNCC3)s2)c1)c1ccc2[nH]c(=O)c(=O)[nH]c2c1`, for which the concentration for half-maximal inhibition (IC50) in experiment [1] (Table 4, heteroaryl compounds) was 35 µM. This IC50 is about 2.1-fold lower than that of the molecule before.
On the same count and under the same terms, for `O=c1[nH]c2ccc(S(=O)(=O)Nc3cccc(-c4ccc(CN5CCNCC5)s4)c3)cc2[nH]c1=O` the value was 80 µM; for `O=C(c1ccc(-c2cccc(NS(=O)(=O)c3ccc4[nH]c(=O)c(=O)[nH]c4c3)c2)s1)N1CCNCC1`, 80 µM.
`O=C(Nc1ccc(-c2ccc(CN3CCNCC3)s2)cc1)c1ccc2[nH]c(=O)c(=O)[nH]c2c1`: the IC50 in experiment [1] (Table 4, heteroaryl compounds) is 55 µM.
Same read-out and setting: for `O=C(CNC(=O)c1ccc2[nH]c(=O)c(=O)[nH]c2c1)Nc1cccc(-c2ccc(C(=O)N3CCNCC3)s2)c1` the value was 100 µM; for `O=C(Nc1ccc(-c2ccc(C(=O)N3CCNCC3)s2)cc1)c1ccc2[nH]c(=O)c(=O)[nH]c2c1`, 50 µM.
On the same count and under the same terms, for `O=C(Nc1ccc(-c2ccc(C(=O)Nc3ccc(C(=O)N4CCNCC4)cc3)s2)cc1)c1ccc2[nH]c(=O)c(=O)[nH]c2c1` the value was 30 µM; for `O=C(Nc1cccc(-c2ccc(C(=O)N3CCC[C@H]3C(=O)N3CCNCC3)s2)c1)c1ccc2[nH]c(=O)c(=O)[nH]c2c1`, 25 µM.
A word on the MIC: it is the least concentration at which growth counts as inhibited. For the molecule `CCn1cc(C(=O)Nc2cccc(-c3ccc(C(=O)N4CCNCC4)s3)c2)c(=O)c2ccc(C)nc21`, the MIC fell in the range of 50 to 100 µM (≈ 25.1 to 50.2 µg/mL) in the experiment with E. coli; 25 to 50 µM (≈ 12.5 to 25.1 µg/mL) with S. pyogenes (setting [3]); 50 to 100 µM (≈ 25.1 to 50.2 µg/mL) against K. pneumoniae; 50 to 100 µM (≈ 25.1 to 50.2 µg/mL) against E. hirae; 50 to 100 µM (≈ 25.1 to 50.2 µg/mL) against S. aureus.
`NCCC(NC(=O)c1ccc(-c2cccc(NC(=O)c3ccc4[nH]c(=O)c(=O)[nH]c4c3)c2)s1)C(=O)N1CCNCC1` (centres unmarked) came in with an MIC in the experiment with S. pyogenes of 50 to 100 µM (≈ 28.8 to 57.6 µg/mL).
As to `CCn1cc(C(=O)Nc2ccc(-c3ccc(C(=O)N4CCNCC4)s3)cc2)c(=O)c2ccc(C)nc21`, the MIC in the experiment on E. coli and with S. pyogenes (setting [3]) was 50 to 100 µM (≈ 25.1 to 50.2 µg/mL) throughout.
A word on the Kd: it is the concentration at which binding is half-saturated. As to `O=C(Nc1cccc(-c2ccc(C(=O)N3CCNCC3)s2)c1)c1ccc2[nH]c(=O)c(=O)[nH]c2c1` [Structure 1], in experiment [2], the dissociation constant (Kd) is 79 µM. In experiment [1] (setting [4]), this molecule registered an IC50 of 25 µM.
The like results for `O=C(Nc1cccc(-c2ccc(C(=O)NCCC(=O)N3CCNCC3)s2)c1)c1ccc2[nH]c(=O)c(=O)[nH]c2c1` [Structure 3] were, in that order, 139 µM and 35 µM.
Molecule `O=C(Nc1cccc(-c2ccc(C(=O)N3CCNCC3)s2)c1)c1ccc2[nH]c(=O)c(=O)[nH]c2c1` [drawing 51] gave an IC50 in experiment [1] (Table 4, heteroaryl compounds) of 25 µM.
